This note sets out measurements from patent US20260274856A1, “COVALENT CEREBLON LIGANDS” (C4 THERAPEUTICS, INC., priority 2023, published 2026).

Structures are written as SMILES. Where two headings read alike, the source gives them in different places.

The test system of assay [1] is A375—NRASQ^61K cells (cell line A375.11). Description: CTGlo (CellTiter-Glo 2.0) Cell Viability Assay. It is filed as cell-based. How it is done: Compounds of the present invention were tested for their effect on the viability of A375—NRASQ^61K cells by quantification of ATP using the CellTiter-Glo® 2.0 Cell Viability Assay (Catalog No. G9243, Promega, Madison, WI, USA). This assay produces a luminescent signal in the presence of ATP, which is indicative of metabolically active cells, making the luminescence readout proportional to the number of viable cells. A375—NRASQ^61K cells, also referred to here as cell line A375.11, (harboring BRAF homozygous V600E mutation and NRAS homozygous Q61K mutation) were purchased from ATCC (Catalog No. CRL-1619IG-2, Manassas, VA, USA).
Cells were also plated to a 384-well plate with no compound treatment, to which CellTiter-Glo® reagent was added and luminescence was read right after plating to act as a baseline signal at time of plating (To).
DMSO treated cells with no CellTiter-Glo® reagent added were used as the background or positive control (P). Viability was determined by subtracting out the average background signal (P) and normalized to the average untreated signal (N) set at 100%.
(In ATP-based viability assays light output follows the ATP content of the culture.)

For assay [2], the target named is mutant BRAF V600E (Homo sapiens, UniProt P15056, V600E). Description: BRAF V600E HiBiT Degradation Assay in A375.10 cells. To be noted: for HiBIT-Degradation A375.10 BRAF 24 hours IP nM / DC50: A375.10 cells, 24 hours; for HiBIT-Degradation A375.10 BRAF 24 hours IP nM: inflection point of the dose-response curve; for DC50: read-out: HiBIT-Degradation A375.10 BRAF 24 hours DC50 nM; for Emax: read-out: HiBIT-Degradation A375.10 BRAF 24 hours Emax.
Sequence of mutant BRAF V600E (P15056 whole entry V600E): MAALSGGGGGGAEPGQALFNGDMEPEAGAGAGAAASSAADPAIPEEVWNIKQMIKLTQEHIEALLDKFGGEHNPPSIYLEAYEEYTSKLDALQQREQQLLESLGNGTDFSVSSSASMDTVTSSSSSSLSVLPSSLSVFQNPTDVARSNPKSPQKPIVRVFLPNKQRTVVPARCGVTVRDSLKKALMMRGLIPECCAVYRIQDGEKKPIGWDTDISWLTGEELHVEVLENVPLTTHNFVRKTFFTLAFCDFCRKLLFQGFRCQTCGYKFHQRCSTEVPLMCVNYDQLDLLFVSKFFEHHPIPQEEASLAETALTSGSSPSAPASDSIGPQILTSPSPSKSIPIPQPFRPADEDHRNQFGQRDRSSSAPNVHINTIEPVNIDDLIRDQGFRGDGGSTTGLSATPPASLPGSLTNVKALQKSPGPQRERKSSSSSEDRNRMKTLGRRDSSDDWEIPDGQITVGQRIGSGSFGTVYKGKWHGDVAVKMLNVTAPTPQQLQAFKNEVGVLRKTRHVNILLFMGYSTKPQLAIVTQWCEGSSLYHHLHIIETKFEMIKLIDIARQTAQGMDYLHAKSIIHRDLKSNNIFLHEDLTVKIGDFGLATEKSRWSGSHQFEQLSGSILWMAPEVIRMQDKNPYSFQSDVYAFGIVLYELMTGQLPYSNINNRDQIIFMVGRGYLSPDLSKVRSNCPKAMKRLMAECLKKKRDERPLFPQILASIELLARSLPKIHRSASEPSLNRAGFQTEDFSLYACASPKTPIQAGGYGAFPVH
Description: Compounds of this invention were tested for degradation of mutant BRAF V600E using the HiBiT assay, a luminescence-based assay for quantification of cellular protein levels using the Nano-Glo@HiBiT Lytic Detection System (Catalog No. N3050, Promega, Madison, WI USA). This assay utilizes the HiBiT tag on a protein of interest, which creates a luminescent signal in the presence of a complementing peptide and its substrate, the quantification of which 10 is proportional to the amount of HiBiT-tagged protein in the cell.
A375 cells were engineered to express HiBiT tagged BRAF V600E by CRISPR knock-in of the HiBiT tag to the endogenous BRAF V600E locus, followed by selection of a clonal population containing 15 the appropriate knock-in (referred to here as cell line A375.10). […] Cell culture flasks and 384-well microplates 20 were acquired from VWR (Radnor, PA, USA).
Plates were then spun briefly, and cells were incubated with compound at 37° C. for 2 hoursor 24 hours.
Following the appropriate treatment time, Nano-Glo® HiBiT Lytic Assay reagents were added to the cells per the manufacturer's instructions by adding 30ul of reagent per well, and 10 the luminescence signal was acquired by plate reader. Cells treated with DMSO only (no test compound treatment) were used as the negative control (N). Media only (no cells added) with Nano-Glo reagent addition was used as the background or positive control (P). The percent response of compound treated samples were calculated by subtracting out the background signal (P) and normalizing to the DMSO control (N) as follows. % Response=100 x (Treated Signal - Average (P))/(Average (N) - Average (P)).
Data were analyzed with a 4-parameter logistic fit to generate sigmoidal dose-response curves. […] The Emax, or maximum effect of each compound, represents the amount of residual protein remaining in the cell following compound treatment.
The experiment was conducted at least once for each compound. If the experiment was conducted multiple times, the data shown in the table is the average of the two or more experiments.

Setting [3] is: 96 h, IP, read-out: CTGlo A375.11 96 hours IP.
The mark [4] stands for this setting: 96 hours, lowest % viability achieved.
The mark [5] stands for this setting: half-maximal inhibition of cell growth, table title: A375.11 96 hours, read-out: CTGlo A375.11 96 hours GI50.
Where [6] appears, read: 96 hours, IP, read-out: CTGlo A375.11 96 hours IP.

With `CCN(C)S(=O)(=O)Nc1ccc(F)c(Oc2ccc3ncn([C@@H]4COC5(CCN(C(=O)CN6CCC(c7ccc(C8CCC(=O)NC8=O)cc7OS(=O)(=O)F)CC6)CC5)C4)c(=O)c3c2)c1C#N` (stereo partly drawn) [drawing 1168], the values for the GI50 in assay [1] (setting [3]) and in assay [1] (setting [5]) were 1 to 10 µM and more than 10 µM, respectively. Further, the Emax in assay [1] (setting [4]) lay within 60 to 95%.

With `CCN(C)S(=O)(=O)Nc1ccc(F)c(Oc2ccc3ncn([C@H]4COC5(CCN(C(=O)CN6CCC(c7ccc(C8CCC(=O)NC8=O)cc7OS(=O)(=O)F)CC6)CC5)C4)c(=O)c3c2)c1C#N` (stereo partly drawn) [drawing 1169], the figures for the GI50 in assay [1] (setting [3]) and in assay [1] (setting [5]) were 1 to 10 µM and more than 10 µM, respectively. Also, in assay [1] (setting [4]), the Emax is less than 60%.

As for `CCN(C)S(=O)(=O)Nc1ccc(F)c(Oc2ccc3ncn([C@H]4COC5(CCN(C(=O)CN6CCN(c7ccc(C8CCC(=O)NC8=O)cc7OS(=O)(=O)F)CC6)CC5)C4)c(=O)c3c2)c1C#N` (stereo partly drawn) [drawing 1170], the GI50 is less than 1 µM in assay [1] (setting [3]) and more than 10 µM in assay [1] (setting [5]). The Emax in assay [1] (setting [4]) was in the range of 60 to 95%.

Take `CCN(C)S(=O)(=O)Nc1ccc(F)c(Oc2ccc3ncn([C@@H]4COC5(CCN(C(=O)CN6CCC(c7ccc(N8CCC(=O)NC8=O)cc7OS(=O)(=O)F)CC6)CC5)C4)c(=O)c3c2)c1C#N` [drawing 1171]: the GI50 in assay [1] (setting [3]) and in assay [1] (setting [5]) was more than 10 µM each time. Also, in assay [1] (setting [4]), the Emax lay within 60 to 95%.

With `CCN(C)S(=O)(=O)Nc1ccc(F)c(Oc2ccc3ncn([C@H]4COC5(CCN(C(=O)CN6CCN(c7ccc(N8CCC(=O)NC8=O)cc7OS(=O)(=O)F)CC6)CC5)C4)c(=O)c3c2)c1C#N` [drawing 1172], the GI50 in assay [1] (setting [3]) and in assay [1] (setting [5]) was more than 10 µM throughout. Besides, the Emax in assay [1] (setting [4]) lay within 60 to 95%.

Turning to `CCN(C)S(=O)(=O)Nc1ccc(F)c(Oc2ccc3ncn([C@@H]4COC5(CCN(C(=O)CN6CCC(c7ccc(N8CCC(=O)NC8=O)cc7OS(C)(=O)=O)CC6)CC5)C4)c(=O)c3c2)c1C#N` [drawing 1173], the values for the GI50 in assay [1] (setting [6]) and in assay [1] (setting [5]) were 1 to 10 µM and more than 10 µM, respectively. In assay [1] (setting [4]), this molecule yielded an Emax of 60 to 95%.

Take `CCN(C)S(=O)(=O)Nc1ccc(F)c(Oc2ccc3ncn([C@H]4COC5(CCN(C(=O)CN6CCC(c7ccc(N8CCC(=O)NC8=O)cc7OS(C)(=O)=O)CC6)CC5)C4)c(=O)c3c2)c1C#N` [drawing 1174]: the GI50 in assay [1] (setting [6]) and in assay [1] (setting [5]) was 1 to 10 µM throughout. In assay [1] (setting [4]), this molecule showed an Emax of less than 60%.

As to `CCN(C)S(=O)(=O)Nc1ccc(F)c(Oc2ccc3ncn([C@@H]4COC5(CCN(C(=O)CN6CCC(c7ccc(OC8CCC(=O)NC8=O)cc7S(=O)(=O)F)CC6)CC5)C4)c(=O)c3c2)c1C#N` (stereo partly drawn) [drawing 1175], the GI50 in assay [1] (setting [3]) and in assay [1] (setting [5]) was more than 10 µM in each case. In assay [1] (setting [4]), this molecule gave an Emax of less than 60%.

`CCN(C)S(=O)(=O)Nc1ccc(F)c(Oc2ccc3ncn([C@H]4COC5(CCN(C(=O)CN6CCC(c7ccc(NC8CCC(=O)NC8=O)cc7OS(C)(=O)=O)CC6)CC5)C4)c(=O)c3c2)c1C#N` (stereo partly drawn) [drawing 1176]: the GI50 is 1 to 10 µM in assay [1] (setting [6]) and more than 10 µM in assay [1] (setting [5]). Besides, the Emax in assay [1] (setting [4]) was less than 60%.

Consider `CCN(C)S(=O)(=O)Nc1ccc(F)c(Oc2ccc3ncn([C@@H]4COC5(CCN(C(=O)CN6CCC(c7ccc(NC8CCC(=O)NC8=O)cc7S(=O)(=O)F)CC6)CC5)C4)c(=O)c3c2)c1C#N` (stereo partly drawn) [drawing 1177], for which the GI50 in assay [1] (setting [3]) and in assay [1] (setting [5]) was more than 10 µM in each case. This molecule also displayed an Emax in assay [1] (setting [4]) of 60 to 95%.

With `CCN(C)S(=O)(=O)Nc1ccc(F)c(Oc2ccc3ncn([C@H]4COC5(CCN(C(=O)CN6CCC(c7ccc(NC8CCC(=O)NC8=O)cc7S(=O)(=O)F)CC6)CC5)C4)c(=O)c3c2)c1C#N` (stereo partly drawn) [drawing 1178], the GI50 in assay [1] (setting [3]) and in assay [1] (setting [5]) was more than 10 µM in each case. Further, the Emax in assay [1] (setting [4]) lay in the range of 60 to 95%.

Turning to `CCN(C)S(=O)(=O)Nc1ccc(F)c(Oc2ccc3ncn([C@H]4COC5(CCN(C(=O)CN6CCC(c7ccc(OC8CCC(=O)NC8=O)cc7OS(=O)(=O)F)CC6)CC5)C4)c(=O)c3c2)c1C#N` (stereo partly drawn) [drawing 1179], the GI50 was 1 to 10 µM in assay [1] (setting [3]) and more than 10 µM in assay [1] (setting [5]). The Emax in assay [1] (setting [4]) fell in the range of 60 to 95%.

For the molecule `CCN(C)S(=O)(=O)Nc1ccc(F)c(Oc2ccc3ncn([C@H]4COC5(CCN(C(=O)CN6CCC(c7ccc(N8CCC(=O)NC8=O)cc7OS(=O)(=O)F)CC6)CC5)C4)c(=O)c3c2)c1C#N` [drawing 1180], the GI50 in assay [1] (setting [3]) was 1 to 10 µM; in assay [1] (setting [5]) it was more than 10 µM. In assay [1] (setting [4]), this molecule displayed an Emax of 60 to 95%.

On to `CCN(C)S(=O)(=O)Nc1ccc(F)c(Oc2ccc3ncn([C@H]4COC5(CCN(C(=O)CN6CCC(c7ccc(OC8CCC(=O)NC8=O)cc7S(=O)(=O)F)CC6)CC5)C4)c(=O)c3c2)c1C#N` (stereo partly drawn) [drawing 1181], for which the GI50 in assay [1] (setting [3]) and in assay [1] (setting [5]) was more than 10 µM throughout. The molecule also returned an Emax in assay [1] (setting [4]) of 60 to 95%.

Regarding `CCN(C)S(=O)(=O)Nc1ccc(F)c(Oc2ccc3ncn([C@@H]4COC5(CCN(C(=O)CN6CCC(c7ccc(C8CCC(=O)NC8=O)cc7OS(C)(=O)=O)CC6)CC5)C4)c(=O)c3c2)c1C#N` (stereo partly drawn) [drawing 1182], the GI50 in assay [1] (setting [6]) and in assay [1] (setting [5]) was more than 10 µM each time. In addition, the Emax in assay [1] (setting [4]) fell in the range of 60 to 95%.

As for `CCN(C)S(=O)(=O)Nc1ccc(F)c(Oc2ccc3ncn([C@H]4COC5(CCN(C(=O)CN6CCN(c7ccc(C8CCC(=O)NC8=O)cc7OS(=O)(=O)F)CC6)CC5)C4)c(=O)c3c2)c1C#N` (stereo partly drawn) [drawing 1183], the “CTGlo A375.11 96 hours IP nM” value in assay [1] (96 hours, IP) was “** (<10 μM and >1 μM is **)”. For the same molecule, in assay [1] (setting [4]), the “CTGlo A375.11 96 hours Emax” value was “** (<95% and >60% is **)”. In addition, the GI50 in assay [1] (setting [5]) was more than 10 µM.

Turning to `CCN(C)S(=O)(=O)Nc1ccc(F)c(Oc2ccc3ncn([C@H]4COC5(CCN(C(=O)CN6CCC(c7ccc(OC8CCC(=O)NC8=O)cc7OS(C)(=O)=O)CC6)CC5)C4)c(=O)c3c2)c1C#N` (stereo partly drawn) [drawing 1184], the GI50 in assay [1] (setting [6]) and in assay [1] (setting [5]) was more than 10 µM each time. In assay [1] (setting [4]), this molecule registered an Emax of 60 to 95%.

Consider `CCN(C)S(=O)(=O)Nc1ccc(F)c(Oc2ccc3ncn([C@@H]4COC5(CCN(C(=O)CN6CCN(c7ccc(N8CCC(=O)NC8=O)cc7OS(=O)(=O)F)CC6)CC5)C4)c(=O)c3c2)c1C#N` [drawing 1185], for which the GI50 in assay [1] (setting [3]) and in assay [1] (setting [5]) was more than 10 µM in each case. Further, the Emax in assay [1] (setting [4]) is 60 to 95%.

For the molecule `CCN(C)S(=O)(=O)Nc1ccc(F)c(Oc2ccc3ncn([C@@H]4COC5(CCN(C(=O)CN6CCC(c7ccc(OC8CCC(=O)NC8=O)cc7OS(=O)(=O)F)CC6)CC5)C4)c(=O)c3c2)c1C#N` (stereo partly drawn) [drawing 1186], the GI50 in assay [1] (setting [3]) and in assay [1] (setting [5]) was more than 10 µM throughout. Besides, the Emax in assay [1] (setting [4]) lay within 60 to 95%.

As for `CCN(C)S(=O)(=O)Nc1ccc(F)c(Oc2ccc3ncn([C@@H]4COC5(CCN(C(=O)CN6CCC(c7ccc(OC8CCC(=O)NC8=O)cc7OS(C)(=O)=O)CC6)CC5)C4)c(=O)c3c2)c1C#N` (stereo partly drawn) [drawing 1187], the GI50 in assay [1] (setting [6]) and in assay [1] (setting [5]) was more than 10 µM each time. Further, the Emax in assay [1] (setting [4]) was 60 to 95%.

For `CCN(C)S(=O)(=O)Nc1ccc(F)c(Oc2ccc3ncn([C@@H]4COC5(CCN(C(=O)CN6CCC(c7ccc(NC8CCC(=O)NC8=O)cc7OS(C)(=O)=O)CC6)CC5)C4)c(=O)c3c2)c1C#N` (stereo partly drawn) [drawing 1188], the GI50 in assay [1] (setting [6]) and in assay [1] (setting [5]) was more than 10 µM in each case. This molecule showed an Emax in assay [1] (setting [4]) of more than 95%.

The term DC50 denotes the concentration giving 50% degradation. Take `CCN(C)S(=O)(=O)Nc1ccc(F)c(Oc2ccc3ncn([C@@H]4COC5(CCN(C(=O)CN6CCC(c7ccc(N8CCC(=O)NC8=O)cc7OS(=O)(=O)F)CC6)CC5)C4)c(=O)c3c2)c1C#N` [drawing 1227]: in assay [2], the “HiBIT-Degradation A375.10 BRAF 24 hours IP nM” value is “** (<10 μM and >1 μM is **)”; the DC50 fell in the range of 1000 to 10000 nM; the Emax was less than 60%.

For `CCN(C)S(=O)(=O)Nc1ccc(F)c(Oc2ccc3ncn([C@@H]4COC5(CCN(C(=O)CN6CCC(c7ccc(OC8CCC(=O)NC8=O)cc7OS(=O)(=O)F)CC6)CC5)C4)c(=O)c3c2)c1C#N` (stereo partly drawn) [drawing 1228], in assay [2], the “HiBIT-Degradation A375.10 BRAF 24 hours IP nM” value was “** (<10 μM and >1 μM is **)”; the half-maximal degradation concentration (DC50) lay in the range of 1000 to 10000 nM; the Emax is less than 60%.

For the molecule `CCN(C)S(=O)(=O)Nc1ccc(F)c(Oc2ccc3ncn([C@@H]4COC5(CCN(C(=O)CN6CCN(c7ccc(N8CCC(=O)NC8=O)cc7OS(=O)(=O)F)CC6)CC5)C4)c(=O)c3c2)c1C#N` [drawing 1229], in assay [2], the “HiBIT-Degradation A375.10 BRAF 24 hours IP nM” value was “** (<10 μM and >1 μM is **)”; the half-maximal degradation concentration (DC50) is 1000 to 10000 nM; the Emax is less than 60%.

For the molecule `CCN(C)S(=O)(=O)Nc1ccc(F)c(Oc2ccc3ncn([C@@H]4COC5(CCN(C(=O)CN6CCC(c7ccc(OC8CCC(=O)NC8=O)cc7OS(C)(=O)=O)CC6)CC5)C4)c(=O)c3c2)c1C#N` (stereo partly drawn) [drawing 1230], in assay [2], the “HiBIT-Degradation A375.10 BRAF 24 hours IP nM” value is “** (<10 μM and >1 μM is **)”; the 50% degradation concentration (DC50) was more than 10000 nM; the Emax is less than 60%.
